Measurements as given in patent publication US7446199B2, “Compositions useful as inhibitors of protein kinases” (Vertex Pharmaceuticals Incorporated, priority 2003, dated 2008).

Key:
[1] = target: T1, JAK3 (Homo sapiens, UniProt P52333); assay: JAK3 inhibition assay (ELISA, Poly (Glu, Ala, Tyr) coated plates); type: biochemical; conditions: 2 mM ATP, 60 minutes at 30° C.
T1 sequence (P52333 1-1124): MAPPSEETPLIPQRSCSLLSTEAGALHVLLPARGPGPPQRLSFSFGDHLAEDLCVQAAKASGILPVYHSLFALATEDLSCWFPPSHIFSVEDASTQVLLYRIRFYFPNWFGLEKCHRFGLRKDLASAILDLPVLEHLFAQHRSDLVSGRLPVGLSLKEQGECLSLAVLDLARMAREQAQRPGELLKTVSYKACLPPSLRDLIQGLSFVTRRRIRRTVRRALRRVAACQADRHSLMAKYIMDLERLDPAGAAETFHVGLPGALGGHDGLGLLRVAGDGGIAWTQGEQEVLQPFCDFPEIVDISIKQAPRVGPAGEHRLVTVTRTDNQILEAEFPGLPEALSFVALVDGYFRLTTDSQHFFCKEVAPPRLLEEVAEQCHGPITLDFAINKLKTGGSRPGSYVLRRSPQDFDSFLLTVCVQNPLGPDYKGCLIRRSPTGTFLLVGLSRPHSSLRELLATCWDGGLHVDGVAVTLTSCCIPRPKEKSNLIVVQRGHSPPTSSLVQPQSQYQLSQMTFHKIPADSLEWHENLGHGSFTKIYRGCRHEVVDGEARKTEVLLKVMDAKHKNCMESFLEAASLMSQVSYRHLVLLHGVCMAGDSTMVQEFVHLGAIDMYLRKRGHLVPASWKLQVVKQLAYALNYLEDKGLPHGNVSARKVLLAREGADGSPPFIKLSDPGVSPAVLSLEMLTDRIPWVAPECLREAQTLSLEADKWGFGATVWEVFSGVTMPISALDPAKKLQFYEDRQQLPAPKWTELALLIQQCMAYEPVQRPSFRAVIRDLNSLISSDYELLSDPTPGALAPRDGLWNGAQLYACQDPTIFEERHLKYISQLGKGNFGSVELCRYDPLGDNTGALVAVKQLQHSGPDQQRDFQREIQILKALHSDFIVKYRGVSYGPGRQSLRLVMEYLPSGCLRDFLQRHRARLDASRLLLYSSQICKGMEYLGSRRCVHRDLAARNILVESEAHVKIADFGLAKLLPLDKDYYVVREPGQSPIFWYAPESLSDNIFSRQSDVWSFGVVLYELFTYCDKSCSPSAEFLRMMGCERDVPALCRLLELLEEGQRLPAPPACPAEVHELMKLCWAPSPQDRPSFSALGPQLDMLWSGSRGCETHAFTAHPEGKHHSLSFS
In short: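 ELISA on Poly(Glu,Ala,Tyr) 6:3:1-coated plates with 2 mM ATP and 5 mM MgCl2. JAK enzyme started the reaction, run 60 min at 30° C. Phosphotyrosine was detected with HRP-conjugated 4G10 antibody and TMB, read at 450 nm, and IC50 was derived from optical densities.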

[2] = target: T2, c-KIT (Homo sapiens, UniProt P10721); assay: Inhibition of c-KIT, radiometric filter-binding assay; type: biochemical; conditions: 700 μM ATP, 0.5 mg/mL pE4Y, room temperature
T2 construct: 0.02% BSA and 25 nM c-KIT
T2 sequence (P10721 26-976): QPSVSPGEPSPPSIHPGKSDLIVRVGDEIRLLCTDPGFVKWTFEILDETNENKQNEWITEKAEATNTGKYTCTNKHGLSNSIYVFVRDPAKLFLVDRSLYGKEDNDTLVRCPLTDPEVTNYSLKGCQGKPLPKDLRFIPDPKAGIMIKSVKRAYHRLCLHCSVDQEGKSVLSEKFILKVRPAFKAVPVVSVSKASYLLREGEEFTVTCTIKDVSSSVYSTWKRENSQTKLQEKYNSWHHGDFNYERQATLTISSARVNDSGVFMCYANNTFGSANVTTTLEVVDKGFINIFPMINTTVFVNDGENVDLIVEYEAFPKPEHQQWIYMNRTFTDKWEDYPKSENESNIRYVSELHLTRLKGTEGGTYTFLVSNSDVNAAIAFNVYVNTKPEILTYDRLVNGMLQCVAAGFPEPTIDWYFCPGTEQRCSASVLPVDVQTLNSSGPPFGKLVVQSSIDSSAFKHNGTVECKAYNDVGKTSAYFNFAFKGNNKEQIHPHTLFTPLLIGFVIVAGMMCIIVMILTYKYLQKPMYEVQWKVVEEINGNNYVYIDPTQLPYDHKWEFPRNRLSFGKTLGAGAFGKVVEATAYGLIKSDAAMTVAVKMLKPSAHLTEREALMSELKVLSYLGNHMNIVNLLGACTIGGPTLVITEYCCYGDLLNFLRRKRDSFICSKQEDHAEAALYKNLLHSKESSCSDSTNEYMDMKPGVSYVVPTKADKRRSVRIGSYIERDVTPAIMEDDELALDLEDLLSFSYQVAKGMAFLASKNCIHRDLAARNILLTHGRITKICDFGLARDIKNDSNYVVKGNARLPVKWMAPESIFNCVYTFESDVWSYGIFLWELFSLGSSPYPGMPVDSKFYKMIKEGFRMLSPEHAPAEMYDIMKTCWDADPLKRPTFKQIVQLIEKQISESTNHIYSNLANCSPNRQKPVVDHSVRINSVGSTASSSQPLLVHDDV
In short: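 Radiometric filter-binding: 25 nM c-KIT (enzyme in the Solution 2 mix) with poly(Glu,Tyr) 4:1 substrate at 0.5 mg/mL and [γ-^33P]ATP at 700 μM (both final), in HEPES pH 7.5/MgCl2/NaCl/DTT/BSA with 2.5% DMSO. Incubated 20 min at room temperature, stopped with TCA, and ^33P incorporation counted on filters. 12-point titration, final compound typically 0.01-5 μM; IC50 or Ki from curve fit.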

SMILES	Ki [1]	Ki [2]
CN1CCN(C(=O)[C@H]2C[C@@H]2c2cnc3[nH]cc(-c4oncc4-c4cccc(F)c4F)c3c2)CC1 (relative stereo) [Compound 142, trans-(2-{3-[4-(2,3-Difluoro-phenyl)-isoxazol-5-yl]-1H-pyrrolo[2,3-b]pyridin-5-yl}-cyclopropyl)-(4-methyl-piperazin-1-yl)-methanone]	200 to 1000 nM	< 200 nM
Fc1cccc(-c2cnoc2-c2n[nH]c3ncccc23)c1F [Compound 31, 3-(4-(2,3-difluorophenyl)isoxazol-5-yl)-1H-pyrazolo[3,4-b]pyridine]	1000 to 12500 nM	–
Fc1cccc(-c2cnoc2-c2c[nH]c3ccc(-c4ccncc4)cc23)c1F [Compound 34, 3-[4-(2,3-Difluoro-phenyl)-isoxazol-5-yl]-5-pyridin-4-yl-1H-indole]	1000 to 12500 nM	–
c1ccc(-c2cnoc2-c2c[nH]c3ncccc23)cc1 [Compound 35, 3-[4-Phenyl-isoxazol-5-yl]-1H-pyrrolo[2,3-b]pyridine]	200 to 1000 nM	–
Fc1cc(F)c(F)c(-c2cnoc2-c2c[nH]c3ncccc23)c1 [Compound 39, 3-[4-(2,3,5-Trifluoro-phenyl)-isoxazol-5-yl]-1H-pyrrolo [2,3-b]pyridine]	200 to 1000 nM	–
Fc1ccc(F)c(-c2cnoc2-c2c[nH]c3ncccc23)c1F [Compound 41, 3-[4-(2,3,6-Trifluoro-phenyl)-isoxazol-5-yl]-1H-pyrrolo [2,3-b]pyridine]	< 200 nM	–
Fc1cccc(-c2cnoc2-c2c[nH]c3ncc(Cl)cc23)c1F [Compound 44, 3-[4-(2,3-Difluoro-phenyl)-isoxazol-5-yl]-5-chloro-1H-pyrrolo[2,3-b]pyridine]	200 to 1000 nM	–
Fc1cnc2[nH]cc(-c3oncc3-c3cccc(F)c3F)c2c1 [Compound 45, 3-[4-(2,3-Difluoro-phenyl)-isoxazol-5-yl]-5-fluoro-1H-pyrrolo[2,3-b]pyridine]	1000 to 12500 nM	–
Cc1cnc2[nH]cc(-c3oncc3-c3cccc(F)c3F)c2c1 [Compound 46, 3-[4-(2,3-Difluoro-phenyl)-isoxazol-5-yl]-5-methyl-1H-pyrrolo[2,3-b]pyridine]	200 to 1000 nM	200 to 1000 nM
OCc1cnc2[nH]cc(-c3oncc3-c3cccc(F)c3F)c2c1 [Compound 55, {3-[4-(2,3-Difluoro-phenyl)-isoxazol-5-yl]-1H-pyrrolo[2,3-b]pyridin-5-yl}-methanol]	1000 to 12500 nM	200 to 1000 nM
Fc1cccc(-c2cnoc2-c2c[nH]c3nc(Cl)c(-c4ccncc4)cc23)c1F [Compound 103, 6-Chloro-3-[4-(2,3-difluoro-phenyl)-isoxazol-5-yl]-5-pyridin-4-yl-1H-pyrrolo[2,3-b]pyridine]	1000 to 12500 nM	–
O=C(c1cnc2[nH]cc(-c3oncc3-c3cccc(F)c3F)c2c1)N1CCCC1 [Compound 104, {3-[4-(2,3-Difluoro-phenyl)-isoxazol-5-yl]-1H-pyrrolo[2,3-b]pyridin-5-yl}-pyrrolidin-1-yl-methanone]	1000 to 12500 nM	–
COc1cnc2[nH]cc(-c3nncn3-c3cccc(F)c3F)c2c1 [Compound 108, 3-[4-(2,3-Difluoro-phenyl)-4H-[1,2,4]triazol-3-yl]-5-methoxy-1H-pyrrolo[2,3-b]pyridine]	1000 to 12500 nM	200 to 1000 nM
Fc1cccc(-n2cnnc2-c2c[nH]c3ncc(-c4ccc(N5CCNCC5)nc4)cc23)c1F [Compound 111, 3-[4-(2,3-Difluoro-phenyl)-4H-[1,2,4]triazol-3-yl]-5-(6-piperazin-1-yl-pyridin-3-yl)-1H-pyrrolo[2,3-b]pyridine]	1000 to 12500 nM	200 to 1000 nM
Fc1cccc(-c2cnoc2-c2c[nH]c3ncc(CCn4cncn4)cc23)c1F [Compound 132, 3-[4-(2,3-Difluoro-phenyl)-isoxazol-5-yl]-5-(2-[1,2,4]triazol-1-yl-ethyl)-1H-pyrrolo[2,3-b]pyridine]	1000 to 12500 nM	–
CN(C)C1CCC(c2cnc3[nH]cc(-c4oncc4-c4cccc(F)c4F)c3c2)CC1 (stereo not drawn) [Compound 141, (4-{3-[4-(2,3-Difluoro-phenyl)-isoxazol-5-yl]-1H-pyrrolo[2,3-b]pyridin-5-yl}-cyclohexyl)-dimethylamine]	200 to 1000 nM	< 200 nM
NC(=O)c1ccc(-c2cnc3[nH]cc(-c4oncc4-c4cccc(F)c4F)c3c2)cc1 [Compound 153]	< 200 nM	< 200 nM
OB(O)c1cnc2[nH]cc(-c3oncc3-c3cccc(F)c3F)c2c1 [Compound 154]	< 200 nM	–
C[N+]1(C)CCN(c2ccc(-c3cnc4[nH]cc(-c5oncc5-c5cccc(F)c5F)c4c3)cc2)CC1 [Compound 155]	< 200 nM	< 200 nM
